Assay results from ChEMBL document CHEMBL1158775, “Quinones from Chirita eburnea” (J Nat Prod, 2005).

Each compound was assayed on Radical scavenging activity (assay: Antioxidant activity assessed as DPPH radical scavenging activity).
Assay type: functional

Row | SMILES | IC50
1 | C[C@@H]1OC2=C(C(=O)c3ccc(O)c(O)c3C2=O)C1(C)C | 125 µM
2 | O=C1O[C@H]([C@@H](O)CO)C(O)=C1O [ASCORBIC ACID] | 86.9 µM
3 | COc1c(O)cc2c(c1O)C(=O)C1=C(C2=O)C(C)(C)[C@H](C)O1 | 45.7 µM
